Results published in PubChem BioAssay (NCI).
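In this assay, cells in 96-well plates receive the compound at five concentrations for 48 hours. Endpoints are linearly interpolated between the surrounding concentrations. TGI: concentration producing complete growth inhibition.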

Tests used:
Experiment in all cases: NCI anticancer screen, dose series, 48 h
SN12C renal = test system: SN12C renal
UACC-257 melanoma = test system: UACC-257 melanoma
PC-3 prostate = test system: PC-3 prostate
SK-MEL-28 melanoma = test system: SK-MEL-28 melanoma
MDA-N = test system: MDA-N
MDA-MB-435 = test system: MDA-MB-435
UO-31 renal = test system: UO-31 renal
T-47D breast = test system: T-47D breast
SNB-19 CNS = test system: SNB-19 CNS
NCI-H23 lung = test system: NCI-H23 lung
SK-MEL-2 melanoma = test system: SK-MEL-2 melanoma
RXF 393 renal = test system: RXF 393 renal
SNB-75 CNS = test system: SNB-75 CNS
UACC-62 melanoma = test system: UACC-62 melanoma
IGROV1 ovarian = test system: IGROV1 ovarian
OVCAR-4 ovarian = test system: OVCAR-4 ovarian
SW-620 colon = test system: SW-620 colon
TK-10 renal = test system: TK-10 renal
KM12 colon = test system: KM12 colon
MALME-3M melanoma = test system: MALME-3M melanoma
MDA-MB-231 breast = test system: MDA-MB-231 breast
HS 578T breast = test system: HS 578T breast
LOX IMVI melanoma = test system: LOX IMVI melanoma
OVCAR-3 ovarian = test system: OVCAR-3 ovarian
MCF7 breast = test system: MCF7 breast
OVCAR-5 ovarian = test system: OVCAR-5 ovarian
DU-145 prostate = test system: DU-145 prostate
ACHN renal = test system: ACHN renal
OVCAR-8 ovarian = test system: OVCAR-8 ovarian
HCT-116 colon = test system: HCT-116 colon
HL-60(TB) leukemia = test system: HL-60(TB) leukemia
HCC-2998 colon = test system: HCC-2998 colon
M14 melanoma = test system: M14 melanoma
SF-295 CNS = test system: SF-295 CNS
HCT-15 colon = test system: HCT-15 colon
HT29 colon = test system: HT29 colon
BT-549 breast = test system: BT-549 breast
SF-539 CNS = test system: SF-539 CNS
MOLT-4 leukemia = test system: MOLT-4 leukemia
NCI-H226 lung = test system: NCI-H226 lung
CAKI-1 renal = test system: CAKI-1 renal
RPMI-8226 leukemia = test system: RPMI-8226 leukemia
HOP-62 NSCLC = test system: HOP-62 NSCLC
COLO 205 colon = test system: COLO 205 colon
NCI-H460 lung = test system: NCI-H460 lung
SF-268 CNS = test system: SF-268 CNS
U251 CNS = test system: U251 CNS
A498 renal = test system: A498 renal
786-0 renal = test system: 786-0 renal
CCRF-CEM leukemia = test system: CCRF-CEM leukemia
SR leukemia = test system: SR leukemia
K-562 leukemia = test system: K-562 leukemia
SK-MEL-5 melanoma = test system: SK-MEL-5 melanoma
EKVX NSCLC = test system: EKVX NSCLC
A549 NSCLC = test system: A549 NSCLC
NCI-H522 lung = test system: NCI-H522 lung
SK-OV-3 ovarian = test system: SK-OV-3 ovarian
NCI/ADR-RES ovarian = test system: NCI/ADR-RES ovarian
HOP-92 NSCLC = test system: HOP-92 NSCLC

SMILES: Cc1ncc([N+](=O)[O-])n1CCNC(=O)CCCn1ccnc1[N+](=O)[O-]
- TGI (SN12C renal): > 100 µM
- TGI (UACC-257 melanoma): > 100 µM
- TGI (PC-3 prostate): > 100 µM
- TGI (SK-MEL-28 melanoma): > 100 µM
- TGI (MDA-N): > 100 µM
- TGI (MDA-MB-435): > 100 µM
- TGI (UO-31 renal): > 100 µM
- TGI (T-47D breast): > 100 µM
- TGI (SNB-19 CNS): > 100 µM
- TGI (NCI-H23 lung): > 100 µM
- TGI (SK-MEL-2 melanoma): > 100 µM
- TGI (RXF 393 renal): > 100 µM
- TGI (SNB-75 CNS): > 100 µM
- TGI (UACC-62 melanoma): > 100 µM
- TGI (IGROV1 ovarian): > 100 µM
- TGI (OVCAR-4 ovarian): > 100 µM
- TGI (SW-620 colon): > 100 µM
- TGI (TK-10 renal): > 100 µM
- TGI (KM12 colon): > 100 µM
- TGI (MALME-3M melanoma): > 100 µM
- TGI (MDA-MB-231 breast): > 100 µM
- TGI (HS 578T breast): > 100 µM
- TGI (LOX IMVI melanoma): > 100 µM
- TGI (OVCAR-3 ovarian): > 100 µM
- TGI (MCF7 breast): > 100 µM
- TGI (OVCAR-5 ovarian): > 100 µM
- TGI (DU-145 prostate): > 100 µM
- TGI (ACHN renal): > 100 µM
- TGI (OVCAR-8 ovarian): > 100 µM
- TGI (HCT-116 colon): > 100 µM
- TGI (HL-60(TB) leukemia): > 100 µM
- TGI (HCC-2998 colon): > 100 µM
- TGI (M14 melanoma): > 100 µM
- TGI (SF-295 CNS): > 100 µM
- TGI (HCT-15 colon): > 100 µM
- TGI (HT29 colon): > 100 µM
- TGI (BT-549 breast): > 100 µM
- TGI (SF-539 CNS): > 100 µM
- TGI (MOLT-4 leukemia): > 100 µM
- TGI (NCI-H226 lung): > 100 µM
- TGI (CAKI-1 renal): > 100 µM
- TGI (RPMI-8226 leukemia): > 100 µM
- TGI (HOP-62 NSCLC): > 100 µM
- TGI (COLO 205 colon): > 100 µM
- TGI (NCI-H460 lung): > 100 µM
- TGI (SF-268 CNS): > 100 µM
- TGI (U251 CNS): > 100 µM
- TGI (A498 renal): > 100 µM
- TGI (786-0 renal): > 100 µM
- TGI (CCRF-CEM leukemia): > 100 µM
- TGI (SR leukemia): > 100 µM
- TGI (K-562 leukemia): > 100 µM
- TGI (SK-MEL-5 melanoma): > 100 µM
- TGI (EKVX NSCLC): > 100 µM
- TGI (A549 NSCLC): > 100 µM

SMILES: CN(C)c1ccc(C(=O)NCCCCCCC(=O)NO)cc1
- TGI (SN12C renal): 2.03 µM
- TGI (UACC-257 melanoma): 2.13 µM
- TGI (SK-MEL-28 melanoma): 13.9 µM
- TGI (MDA-N): 0.908 µM
- TGI (MDA-MB-435): 3.62 µM
- TGI (UO-31 renal): 5.2 µM
- TGI (T-47D breast): 1.04 µM
- TGI (SNB-19 CNS): > 100 µM
- TGI (NCI-H23 lung): 3.66 µM
- TGI (SK-MEL-2 melanoma): 0.932 µM
- TGI (RXF 393 renal): 1.73 µM
- TGI (SNB-75 CNS): 2.2 µM
- TGI (UACC-62 melanoma): 1.37 µM
- TGI (IGROV1 ovarian): 2.69 µM
- TGI (OVCAR-4 ovarian): > 25.3 µM
- TGI (SW-620 colon): > 21.5 µM
- TGI (TK-10 renal): 2.7 µM
- TGI (NCI-H522 lung): 0.739 µM
- TGI (KM12 colon): 35.4 µM
- TGI (MALME-3M melanoma): > 100 µM
- TGI (HS 578T breast): > 23.8 µM
- TGI (LOX IMVI melanoma): 1.51 µM
- TGI (OVCAR-3 ovarian): 4.38 µM
- TGI (OVCAR-5 ovarian): 1.49 µM
- TGI (ACHN renal): 5.45 µM
- TGI (OVCAR-8 ovarian): 2.46 µM
- TGI (HCT-116 colon): 0.972 µM
- TGI (SK-OV-3 ovarian): 1.54 µM
- TGI (HL-60(TB) leukemia): > 63.8 µM
- TGI (HCC-2998 colon): 1.48 µM
- TGI (M14 melanoma): > 38 µM
- TGI (SF-295 CNS): 1.82 µM
- TGI (HCT-15 colon): > 38.3 µM
- TGI (NCI/ADR-RES ovarian): 0.728 µM
- TGI (HT29 colon): > 32.5 µM
- TGI (BT-549 breast): > 28.3 µM
- TGI (SF-539 CNS): > 53 µM
- TGI (MOLT-4 leukemia): > 100 µM
- TGI (NCI-H226 lung): 17.8 µM
- TGI (CAKI-1 renal): 2.81 µM
- TGI (HOP-62 NSCLC): 98.8 µM
- TGI (COLO 205 colon): 0.832 µM
- TGI (NCI-H460 lung): 5.21 µM
- TGI (SF-268 CNS): 6.26 µM
- TGI (U251 CNS): 3.64 µM
- TGI (A498 renal): 3.07 µM
- TGI (786-0 renal): > 30.4 µM
- TGI (CCRF-CEM leukemia): > 100 µM
- TGI (SR leukemia): > 76 µM
- TGI (K-562 leukemia): > 100 µM
- TGI (SK-MEL-5 melanoma): 1.39 µM
- TGI (EKVX NSCLC): > 100 µM
- TGI (A549 NSCLC): 10.9 µM

SMILES: COc1cc(OC)cc(-n2c(N)c(C#N)c3ccc([N+](=O)[O-])cc3c2=O)c1
- TGI (SN12C renal): 52.3 µM
- TGI (UACC-257 melanoma): > 100 µM
- TGI (PC-3 prostate): > 100 µM
- TGI (SK-MEL-28 melanoma): > 100 µM
- TGI (MDA-N): > 100 µM
- TGI (MDA-MB-435): > 100 µM
- TGI (UO-31 renal): 74.9 µM
- TGI (T-47D breast): > 100 µM
- TGI (SNB-19 CNS): 40.4 µM
- TGI (NCI-H23 lung): > 100 µM
- TGI (SK-MEL-2 melanoma): > 100 µM
- TGI (SNB-75 CNS): 60.6 µM
- TGI (UACC-62 melanoma): > 100 µM
- TGI (OVCAR-4 ovarian): 52 µM
- TGI (SW-620 colon): > 100 µM
- TGI (TK-10 renal): 69 µM
- TGI (KM12 colon): > 100 µM
- TGI (MDA-MB-231 breast): 96.2 µM
- TGI (HS 578T breast): 87.6 µM
- TGI (LOX IMVI melanoma): > 100 µM
- TGI (DU-145 prostate): 47.1 µM
- TGI (ACHN renal): > 100 µM
- TGI (OVCAR-8 ovarian): 59.2 µM
- TGI (HCT-116 colon): > 100 µM
- TGI (HCC-2998 colon): > 100 µM
- TGI (HCT-15 colon): > 100 µM
- TGI (NCI/ADR-RES ovarian): > 100 µM
- TGI (HT29 colon): > 100 µM
- TGI (BT-549 breast): > 100 µM
- TGI (NCI-H226 lung): 51.6 µM
- TGI (CAKI-1 renal): 90.8 µM
- TGI (RPMI-8226 leukemia): > 100 µM
- TGI (COLO 205 colon): > 100 µM
- TGI (HOP-92 NSCLC): 44.9 µM
- TGI (NCI-H460 lung): > 100 µM
- TGI (SF-268 CNS): > 100 µM
- TGI (U251 CNS): 52.4 µM
- TGI (A498 renal): 41.6 µM
- TGI (786-0 renal): 39.5 µM
- TGI (SR leukemia): 55.8 µM
- TGI (K-562 leukemia): > 100 µM
- TGI (SK-MEL-5 melanoma): > 100 µM
- TGI (A549 NSCLC): > 100 µM
